Measurements taken from PMC11345841, “Exploring 2-Sulfonylpyrimidine Warheads as Acrylamide Surrogates for Targeted Covalent Inhibition: A BTK Story” (Journal of Medicinal Chemistry, 2024).
Read-outs that look alike come from different tables or passages of the source.

What was measured:
Assay in all cases: KINOMEscan ScanTK
Assay type in all cases: binding
EGFR(S752-I759del) = target: T1, EGFR(S752-I759del) (Homo sapiens, UniProt P00533, DEL752-759)
T1 construct: purchased Eurofins DiscoverX KINOMEscan (scanTK)

FER = target: T2, FER (Homo sapiens, UniProt P16591)
T2 construct: purchased Eurofins DiscoverX KINOMEscan (scanTK)
T2 sequence (P16591 whole entry): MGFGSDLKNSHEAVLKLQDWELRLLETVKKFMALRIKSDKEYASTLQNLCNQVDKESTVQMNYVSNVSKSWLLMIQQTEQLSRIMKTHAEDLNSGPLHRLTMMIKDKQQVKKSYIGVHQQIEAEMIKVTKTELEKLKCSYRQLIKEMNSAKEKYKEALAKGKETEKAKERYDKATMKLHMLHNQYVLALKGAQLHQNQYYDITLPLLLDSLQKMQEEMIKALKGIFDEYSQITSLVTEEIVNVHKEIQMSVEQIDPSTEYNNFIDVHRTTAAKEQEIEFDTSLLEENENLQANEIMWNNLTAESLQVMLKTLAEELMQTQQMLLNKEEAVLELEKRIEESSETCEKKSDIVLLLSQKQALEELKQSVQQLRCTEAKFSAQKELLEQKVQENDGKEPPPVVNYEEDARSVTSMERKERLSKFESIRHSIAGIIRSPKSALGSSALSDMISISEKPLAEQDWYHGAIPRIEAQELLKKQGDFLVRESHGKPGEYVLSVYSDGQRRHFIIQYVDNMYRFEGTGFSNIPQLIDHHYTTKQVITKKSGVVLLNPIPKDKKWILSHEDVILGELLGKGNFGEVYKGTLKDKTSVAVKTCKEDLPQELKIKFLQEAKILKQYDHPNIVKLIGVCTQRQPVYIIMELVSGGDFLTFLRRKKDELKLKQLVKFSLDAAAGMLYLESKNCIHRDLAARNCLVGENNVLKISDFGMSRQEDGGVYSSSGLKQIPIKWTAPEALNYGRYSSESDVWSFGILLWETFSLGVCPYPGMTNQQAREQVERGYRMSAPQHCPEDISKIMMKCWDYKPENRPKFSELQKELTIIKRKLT

FES = target: T3, FES (Homo sapiens, UniProt P07332)
T3 construct: purchased Eurofins DiscoverX KINOMEscan (scanTK)
T3 sequence (P07332 whole entry): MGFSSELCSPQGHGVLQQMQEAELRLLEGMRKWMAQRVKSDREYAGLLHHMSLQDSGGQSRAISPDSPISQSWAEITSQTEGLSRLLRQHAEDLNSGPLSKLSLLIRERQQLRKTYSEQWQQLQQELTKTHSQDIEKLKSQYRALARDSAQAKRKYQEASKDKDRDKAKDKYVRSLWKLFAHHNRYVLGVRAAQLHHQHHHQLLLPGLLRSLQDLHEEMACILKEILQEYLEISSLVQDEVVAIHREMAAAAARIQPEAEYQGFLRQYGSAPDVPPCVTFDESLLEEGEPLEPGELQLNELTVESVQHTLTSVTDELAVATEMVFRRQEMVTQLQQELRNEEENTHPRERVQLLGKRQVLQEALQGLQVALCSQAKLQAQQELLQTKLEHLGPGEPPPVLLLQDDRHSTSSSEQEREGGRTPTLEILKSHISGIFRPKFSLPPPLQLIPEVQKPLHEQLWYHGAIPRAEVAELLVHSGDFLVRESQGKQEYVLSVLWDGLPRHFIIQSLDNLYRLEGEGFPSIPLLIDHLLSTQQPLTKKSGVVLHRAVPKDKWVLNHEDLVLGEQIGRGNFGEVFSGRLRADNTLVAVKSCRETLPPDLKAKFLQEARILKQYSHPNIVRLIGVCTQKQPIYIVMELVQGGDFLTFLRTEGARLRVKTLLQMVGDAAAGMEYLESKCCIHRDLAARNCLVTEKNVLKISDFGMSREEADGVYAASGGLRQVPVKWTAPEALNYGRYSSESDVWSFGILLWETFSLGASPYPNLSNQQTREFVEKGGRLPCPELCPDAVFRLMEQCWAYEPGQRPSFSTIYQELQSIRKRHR

FGFR3 = target: T4, FGFR3 (Homo sapiens, UniProt P22607)
T4 construct: purchased Eurofins DiscoverX KINOMEscan (scanTK)
T4 sequence (P22607 23-806): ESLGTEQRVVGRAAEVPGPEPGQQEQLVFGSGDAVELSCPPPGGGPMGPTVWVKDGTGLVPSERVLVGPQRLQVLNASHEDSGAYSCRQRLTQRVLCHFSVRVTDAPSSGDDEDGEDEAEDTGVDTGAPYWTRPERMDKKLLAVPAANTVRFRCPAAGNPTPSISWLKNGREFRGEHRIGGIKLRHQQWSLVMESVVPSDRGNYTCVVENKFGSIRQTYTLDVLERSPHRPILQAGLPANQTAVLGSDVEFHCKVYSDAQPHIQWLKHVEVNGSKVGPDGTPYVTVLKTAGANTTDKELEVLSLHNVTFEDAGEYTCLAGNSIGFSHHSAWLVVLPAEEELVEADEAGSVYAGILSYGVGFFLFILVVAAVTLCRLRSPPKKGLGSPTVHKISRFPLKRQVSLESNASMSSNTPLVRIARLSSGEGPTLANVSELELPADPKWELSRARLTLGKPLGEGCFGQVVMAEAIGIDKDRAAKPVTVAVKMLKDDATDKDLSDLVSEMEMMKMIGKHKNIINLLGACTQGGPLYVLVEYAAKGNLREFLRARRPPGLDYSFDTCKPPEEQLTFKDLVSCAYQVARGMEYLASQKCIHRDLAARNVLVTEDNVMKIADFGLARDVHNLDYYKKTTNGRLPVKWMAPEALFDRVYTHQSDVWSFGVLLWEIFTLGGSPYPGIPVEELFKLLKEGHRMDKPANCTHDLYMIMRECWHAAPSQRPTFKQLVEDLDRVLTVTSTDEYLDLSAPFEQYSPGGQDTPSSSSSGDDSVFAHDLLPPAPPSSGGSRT

FGR = target: T5, FGR (Homo sapiens, UniProt P09769)
T5 construct: purchased Eurofins DiscoverX KINOMEscan (scanTK)
T5 sequence (P09769 whole entry): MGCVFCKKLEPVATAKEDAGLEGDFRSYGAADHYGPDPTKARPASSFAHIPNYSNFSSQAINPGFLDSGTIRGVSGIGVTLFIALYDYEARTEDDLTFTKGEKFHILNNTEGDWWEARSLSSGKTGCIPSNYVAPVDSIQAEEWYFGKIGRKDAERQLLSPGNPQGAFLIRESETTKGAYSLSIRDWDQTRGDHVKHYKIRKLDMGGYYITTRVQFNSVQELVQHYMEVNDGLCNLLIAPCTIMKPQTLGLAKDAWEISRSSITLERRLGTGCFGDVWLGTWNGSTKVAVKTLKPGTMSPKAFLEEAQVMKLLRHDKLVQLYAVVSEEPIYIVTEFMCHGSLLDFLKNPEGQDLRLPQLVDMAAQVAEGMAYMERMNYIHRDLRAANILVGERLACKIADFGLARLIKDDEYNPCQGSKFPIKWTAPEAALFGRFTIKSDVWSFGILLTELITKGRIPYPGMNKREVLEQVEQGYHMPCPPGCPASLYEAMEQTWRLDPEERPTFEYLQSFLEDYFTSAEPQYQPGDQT

FLT3(ITD,D835V) = conditions: for % difference (compound - Ib %Control) / %Control: @1000nM
FLT3-autoinhibited = target: T6, FLT3-autoinhibited (Homo sapiens, UniProt P36888)
T6 construct: purchased Eurofins DiscoverX KINOMEscan (scanTK)
T6 sequence (P36888 27-993): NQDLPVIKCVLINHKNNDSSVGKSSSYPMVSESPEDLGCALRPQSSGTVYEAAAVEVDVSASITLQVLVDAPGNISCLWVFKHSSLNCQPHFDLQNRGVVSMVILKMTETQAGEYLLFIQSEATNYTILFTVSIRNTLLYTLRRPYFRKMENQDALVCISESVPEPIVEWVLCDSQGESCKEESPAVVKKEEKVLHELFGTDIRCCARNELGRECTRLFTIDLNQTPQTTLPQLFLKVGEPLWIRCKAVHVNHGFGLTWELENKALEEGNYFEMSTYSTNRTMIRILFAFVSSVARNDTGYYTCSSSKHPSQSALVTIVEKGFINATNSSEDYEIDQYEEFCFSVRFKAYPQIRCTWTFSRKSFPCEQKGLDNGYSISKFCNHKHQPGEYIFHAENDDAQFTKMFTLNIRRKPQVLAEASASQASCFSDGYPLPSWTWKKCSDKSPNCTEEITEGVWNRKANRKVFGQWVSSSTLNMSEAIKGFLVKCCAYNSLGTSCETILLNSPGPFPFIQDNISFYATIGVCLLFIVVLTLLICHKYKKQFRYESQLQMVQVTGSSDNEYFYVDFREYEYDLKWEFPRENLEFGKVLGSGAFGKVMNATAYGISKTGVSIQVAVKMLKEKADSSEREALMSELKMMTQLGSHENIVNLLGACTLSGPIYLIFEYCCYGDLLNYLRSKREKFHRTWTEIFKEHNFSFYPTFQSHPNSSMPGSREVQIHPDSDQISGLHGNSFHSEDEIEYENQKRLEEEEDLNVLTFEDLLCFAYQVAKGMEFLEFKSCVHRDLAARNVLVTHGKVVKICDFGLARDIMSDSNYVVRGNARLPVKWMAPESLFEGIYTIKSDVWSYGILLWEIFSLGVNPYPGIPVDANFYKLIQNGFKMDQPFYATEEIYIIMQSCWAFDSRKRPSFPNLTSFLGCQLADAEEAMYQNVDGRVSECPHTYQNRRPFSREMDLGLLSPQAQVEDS

[1] = target: T7, JAK2(JH1domain-catalytic) (Homo sapiens, UniProt O60674)
T7 construct: JAK2(JH1domain-catalytic); purchased Eurofins DiscoverX KINOMEscan (scanTK)

[2] = target: T8, JAK3(JH1domain-catalytic) (Homo sapiens, UniProt P52333); conditions: for difference in %Control from compound Ib at 1 µM / remaining binding at 1 µM: JAK3(JH1domain-catalytic); for inhibition at 1 µM: ScanTK
T8 construct: JAK3(JH1domain-catalytic); purchased Eurofins DiscoverX KINOMEscan (scanTK)
T8 sequence (P52333 822-1124 limits assumed): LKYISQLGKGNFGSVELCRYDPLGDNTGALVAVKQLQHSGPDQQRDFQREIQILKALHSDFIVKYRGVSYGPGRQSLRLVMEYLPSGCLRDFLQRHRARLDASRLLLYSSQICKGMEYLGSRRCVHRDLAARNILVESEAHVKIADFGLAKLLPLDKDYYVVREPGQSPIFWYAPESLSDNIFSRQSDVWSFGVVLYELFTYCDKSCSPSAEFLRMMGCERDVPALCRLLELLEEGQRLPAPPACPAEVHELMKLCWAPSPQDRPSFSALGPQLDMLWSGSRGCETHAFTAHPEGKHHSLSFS

LYN = target: T9, LYN (Homo sapiens, UniProt P07948)
T9 construct: purchased Eurofins DiscoverX KINOMEscan (scanTK)
T9 sequence (P07948 whole entry): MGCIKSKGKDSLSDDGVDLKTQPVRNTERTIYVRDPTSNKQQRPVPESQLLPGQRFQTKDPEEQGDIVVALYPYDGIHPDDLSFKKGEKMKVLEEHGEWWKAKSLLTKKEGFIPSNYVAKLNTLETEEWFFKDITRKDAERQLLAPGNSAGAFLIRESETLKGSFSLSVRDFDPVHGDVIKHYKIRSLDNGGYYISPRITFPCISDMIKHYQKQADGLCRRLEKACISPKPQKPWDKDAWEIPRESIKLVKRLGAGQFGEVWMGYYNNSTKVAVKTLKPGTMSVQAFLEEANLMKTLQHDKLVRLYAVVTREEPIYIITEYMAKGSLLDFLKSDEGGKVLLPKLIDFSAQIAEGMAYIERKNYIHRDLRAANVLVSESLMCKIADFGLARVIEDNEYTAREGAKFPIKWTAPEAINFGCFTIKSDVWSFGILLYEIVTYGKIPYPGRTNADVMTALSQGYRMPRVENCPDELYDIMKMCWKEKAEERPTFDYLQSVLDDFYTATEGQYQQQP

RET = target: T10, RET (Homo sapiens, UniProt P07949)
T10 construct: purchased Eurofins DiscoverX KINOMEscan (scanTK)
T10 sequence (P07949 29-1114): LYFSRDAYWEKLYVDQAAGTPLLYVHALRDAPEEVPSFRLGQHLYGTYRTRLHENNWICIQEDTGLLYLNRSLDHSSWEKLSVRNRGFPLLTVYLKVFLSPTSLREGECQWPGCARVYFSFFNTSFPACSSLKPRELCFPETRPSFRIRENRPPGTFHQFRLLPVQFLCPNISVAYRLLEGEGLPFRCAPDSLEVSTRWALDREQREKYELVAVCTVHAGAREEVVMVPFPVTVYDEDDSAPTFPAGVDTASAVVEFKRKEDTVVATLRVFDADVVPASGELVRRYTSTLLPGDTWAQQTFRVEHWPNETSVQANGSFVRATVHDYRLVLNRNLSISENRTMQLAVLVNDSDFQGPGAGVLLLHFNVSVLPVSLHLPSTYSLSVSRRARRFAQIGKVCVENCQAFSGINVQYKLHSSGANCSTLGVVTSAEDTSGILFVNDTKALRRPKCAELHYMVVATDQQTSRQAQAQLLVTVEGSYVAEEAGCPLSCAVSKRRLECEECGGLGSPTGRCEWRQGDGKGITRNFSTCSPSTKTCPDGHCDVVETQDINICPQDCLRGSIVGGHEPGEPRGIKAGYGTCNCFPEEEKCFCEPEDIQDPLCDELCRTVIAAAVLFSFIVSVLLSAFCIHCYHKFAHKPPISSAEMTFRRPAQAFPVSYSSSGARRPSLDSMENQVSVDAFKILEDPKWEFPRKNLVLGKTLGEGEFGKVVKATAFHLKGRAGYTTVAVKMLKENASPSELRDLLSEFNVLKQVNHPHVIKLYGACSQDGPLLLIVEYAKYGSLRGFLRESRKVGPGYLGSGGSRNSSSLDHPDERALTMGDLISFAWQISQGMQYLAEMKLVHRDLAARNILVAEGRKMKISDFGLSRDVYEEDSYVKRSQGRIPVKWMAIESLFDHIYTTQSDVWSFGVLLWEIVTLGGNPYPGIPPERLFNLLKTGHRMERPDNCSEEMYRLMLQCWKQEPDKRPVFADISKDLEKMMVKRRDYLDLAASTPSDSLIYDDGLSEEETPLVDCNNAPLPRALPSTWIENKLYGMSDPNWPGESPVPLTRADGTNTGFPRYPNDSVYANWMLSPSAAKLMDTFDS

TIE1 = target: T11, TIE1 (Homo sapiens, UniProt P35590)
T11 construct: purchased Eurofins DiscoverX KINOMEscan (scanTK)

difference in %Control versus compound Ib at 1 µM (EGFR(S752-I759del); @1000nM) [%] | remaining binding at 1 µM (EGFR(S752-I759del); @1000nM, read-out: %Control) [%] | remaining binding at 1 µM (EGFR(S752-I759del); read-out: %Control @1000nM) [%] | difference in %Control versus compound Ib at 1 µM (FER; @1000nM) [%] | remaining binding at 1 µM (FER; @1000nM, read-out: %Control) [%] | remaining binding at 1 µM (FER; read-out: %Control @1000nM) [%] | difference in %Control versus compound Ib at 1 µM (FES; @1000nM) [%] | remaining binding at 1 µM (FES; @1000nM, read-out: %Control) [%] | remaining binding at 1 µM (FES; read-out: %Control @1000nM) [%] | difference in %Control versus compound Ib at 1 µM (FGFR3; @1000nM) [%] | remaining binding at 1 µM (FGFR3; @1000nM, read-out: %Control) [%] | remaining binding at 1 µM (FGFR3; read-out: %Control @1000nM) [%] | difference in %Control versus compound Ib at 1 µM (FGR; @1000nM) [%] | remaining binding at 1 µM (FGR; @1000nM, read-out: %Control) [%] | remaining binding at 1 µM (FGR; read-out: %Control @1000nM) [%] | difference in %Control vs compound Ib at 1 µM (FLT3-autoinhibited; @1000nM) [%] | remaining binding at 1 µM (FLT3-autoinhibited; @1000nM, read-out: %Control) [%] | SMILES | %Control @1000nM (FLT3(ITD,D835V)) [%] | % difference (compound - Ib %Control) (FLT3(ITD,D835V)) [%] | %Control (FLT3(ITD,D835V)) [%] | further results
98 | 100 | 100 | 0 | 100 | 100 | -4 | 96 | 96 | 48 | 96 | 96 | 13.7 | 19 | 19 | 3 | 100 | CCOC(=O)c1cnc(S(C)(=O)=O)nc1N1CCC[C@@H](n2nc(-c3ccc(Oc4ccccc4)cc3)c3c(N)ncnc32)C1 [Compound 8c, Ethyl (R)-4-(3-(4-Amino-3-(4-phenoxyphenyl)-1H-pyrazolo[3,4-d]pyrimidin-1-yl)piperidin-1-yl)-2-(methylsulfonyl)pyrimidine-5-carboxylate] | 69 | -8 | 69 | remaining binding at 1 µM (FLT3-autoinhibited; read-out: %Control @1000nM): 100%; difference in %Control vs compound Ib at 1 µM ([1]; @1000nM): -17%; remaining binding at 1 µM ([1]; @1000nM, read-out: %Control): 83%; remaining binding at 1 µM ([1]; read-out: %Control @1000nM): 83%; difference in %Control from compound Ib at 1 µM ([2]; @1000nM): 94.5%; remaining binding at 1 µM ([2]; @1000nM, read-out: %Control): 100%; remaining binding at 1 µM ([2]; read-out: %Control @1000nM): 100%; inhibition at 1 µM [2]: < 1%; remaining binding at 1 µM (LYN; @1000nM, read-out: %Control): 72%; remaining binding at 1 µM (LYN; read-out: %Control @1000nM): 72%; remaining binding at 1 µM (RET; @1000nM, read-out: %Control): 84%; remaining binding at 1 µM (RET; read-out: %Control @1000nM): 84%; remaining binding at 1 µM (TIE1; @1000nM, read-out: %Control): 60%; remaining binding at 1 µM (TIE1; read-out: %Control @1000nM): 60%
98 | 100 | 100 | 0 | 100 | 100 | 0 | 100 | 100 | 44 | 92 | 92 | 3.3 | 8.6 | 8.6 | -18 | 79 | Cc1cnc(S(C)(=O)=O)nc1N1CCCC(n2nc(-c3ccc(Oc4ccccc4)cc3)c3c(N)ncnc32)C1 (centres unmarked) [Compound 8a, 1-(1-(5-Methyl-2-(methylsulfonyl)pyrimidin-4-yl)piperidin-3-yl)-3-(4-phenoxyphenyl)-1H-pyrazolo[3,4-d]pyrimidin-4-amine] | 78 | 1 | 78 | remaining binding at 1 µM (FLT3-autoinhibited; read-out: %Control @1000nM): 79%; difference in %Control vs compound Ib at 1 µM ([1]; @1000nM): -13%; remaining binding at 1 µM ([1]; @1000nM, read-out: %Control): 87%; remaining binding at 1 µM ([1]; read-out: %Control @1000nM): 87%; difference in %Control from compound Ib at 1 µM ([2]; @1000nM): 94.5%; remaining binding at 1 µM ([2]; @1000nM, read-out: %Control): 100%; remaining binding at 1 µM ([2]; read-out: %Control @1000nM): 100%; inhibition at 1 µM [2]: < 1%; remaining binding at 1 µM (LYN; @1000nM, read-out: %Control): 21%; remaining binding at 1 µM (LYN; read-out: %Control @1000nM): 21%; remaining binding at 1 µM (RET; @1000nM, read-out: %Control): 56%; remaining binding at 1 µM (RET; read-out: %Control @1000nM): 56%; remaining binding at 1 µM (TIE1; @1000nM, read-out: %Control): 89%; remaining binding at 1 µM (TIE1; read-out: %Control @1000nM): 89%
